Laboratory results: patent US5786367A, “Cyclic amide derivatives” (Otsuka Pharmaceutical Co., Ltd., priority 1994, dated 1998)
Counter-ions that a name gives are not always drawn. Like-named read-outs stand apart in the source and are kept apart here.

Assays:
[1] = system: skin erythema; assay: Activity for inhibiting skin erythema caused by ultraviolet radiation; format: in vivo, albino guinea pig (Hartley strain, female, 7-8 week age); details: for inhibition in vivo at 3 %: Cavia porcellus; for 50% inhibitory concentration (IC50) for inhibiting the skin erythema: three concentrations within 0.1 to 10%
Experimental: The hairs covering in the back of albino guinea pig (Hartley strain, female, 7-8 week age) were shaved by using an electric hair clippers and a shaver. In the next day, the guinea pig was fixed in Bowlman's cage, then a light shield tape (adhesive plaster for patch test), having 4 round holes of 1.5 cm in diameter was adhered on the hair clipped portion so as to provide 4 sites (round holes) to be exposed to the ultraviolet rays. […] Each one of the test sample solutions was prepared by dissolving each test compounds in three kinds of concentrations within 0.1 to 10%, and applied.

[2] = system: skin homogenate of guinea pig; assay: Activity for inhibiting the formation of lipid peroxides (ultraviolet-B irradiated skin homogenate, TBA method); format: biochemical, albino guinea pig (Hartley strain, female); details: test compound 10^-4 M; UV 9.5 mW/cm^2, 60 minutes
Experimental: The activity for inhibiting the formation of lipid peroxides which are increasingly formed by exposed to the ultraviolet-B radiation to the skin homogenate of guinea pig was determined by a procedure of thiobarbituric acid method (TBA method).
The activity for inhibiting the formation of lipid peroxides can be evaluated by degree of decreasing the optical absorbance of the condensate of thus formed malondialdehyde with thiobarbituric acid, by adding a test sample of the cyclic amide derivative of the present invention to the homogenate.
That is, the hairs covering in the back of an albino guinea pig (Hartley strain, female) were clipped by using an electric hair clippers under anesthesia. After the enucleation of the hair clipped portion of the skin, the subcutaneous tissue of this skin was removed in cold physiological saline. Distilled water in an amount of 9 times by weight of the skin tissue was added to this skin subcutaneous tissue, then was subjected to homogenation and centrifugation (600 g, for 5 minutes) to obtain the supernatant liquid. 5 Microliters each of test sample solutions of various concentrations was added to 0.5 ml each of the supernatant liquid, then the ultraviolet ray in the intensity of 9.5 mW/cm^2 was irradiated for 60 minutes by using fluorescent lamps (TOSHIBA FL-20SE, manufactured by Toshiba Corporation) as a light source. As to the reference sample solution, the solvent for dissolution of the test compound was used in place of the test sample solution. After ultraviolet radiation, the amount of lipid peroxide being formed in the sample solution (TBA value) was measured by TBA method (cf. Analytical Biochemistry, 1979, Vol. 95, pp. 351-358), and the inhibition rate of lipid peroxide formation shown by the test sample was calculated by the following formula: [formula]

[3] = 3% concentration of test compound, 10 μl topical, UV 1.3-1.5 mW/cm^2 for 30 minutes, measured 24 hours later, read-out: Rate of activity for inhibiting the skin erythema

| Compound | Inhibition rate of lipid peroxide formation [2] | inhibition in vivo at 3 % [1, 3] | also measured |
| --- | --- | --- | --- |
| 5,7-diallyl-3,4-dihydro-6-hydroxy-1-(2-hydroxybutyl)-2(1H)-quinolinone [Example 110] | – | – | Rate of activity for inhibiting the skin erythema ([1]; 3% concentration of test compound, 10 μl topical, UV 1.3-1.5 mW/cm^2 for 30 minutes, measured 24 hours later): 44% |
| C=CCc1cc2c(cc1O)CCC(=O)N2CC=C(C)C [Example 10, 7-allyl-3,4-dihydro-6-hydroxy-1-prenyl-2(1H)-quinolinone] | 82% | 38% | – |
| C=CCc1cc2c(cc1O)N(CC=C(C)C)C(=O)CC2 [Example 11, 6-Allyl-3,4-dihydro-7-hydroxy-1-prenyl-2(1H)-quinolinone] | 70% | – | – |
| C=CCOc1cc2c(cc1CC=C)N(CC=C(C)C)C(=O)CC2 [Example 17, 7-allyl-6-allyloxy-3,4-dihydro-1-prenyl-2(1H)-quinolinone] | 85% | – | – |
| C=CCOc1cc2c(cc1CC=C)CCC(=O)N2CC=C(C)C [Example 20, 6-allyl-7-allyloxy-3,4-dihydro-1-prenyl-2(1H)-quinolinone] | 81% | 37% | – |
| C=CCc1cc2c(c(CC=C)c1O)NC(=O)CC2 [Example 25, 6,8-diallyl-3,4-dihydro-7-hydroxy-2(1H)-quinolinone] | 78% | – | – |
| C=CCc1cc2c(c(CC=C)c1O)CCC(=O)N2 [Example 26, 5,7-diallyl-3,4-dihydro-6-hydroxy-2(1H)-quinolinone] | 80% | 36% | – |
| C=CCc1cc2c(c(CC=C)c1O)CCC(=O)N2CC=C(C)C [Example 27, 5,7-diallyl-3,4-dihydro-6-hydroxy-1-prenyl-2(1H)-quinolinone] | 82% | 60% | 50% inhibitory concentration (IC50) for inhibiting the skin erythema ([1]; topical): 1.3 concentration in % |
| C=CCc1cc2c(c(CC=C)c1O)N(CC=C(C)C)C(=O)CC2 [Example 28, 6,8-diallyl-3,4-dihydro-7-hydroxy-1-prenyl-2(1H)-quinolinone] | 80% | 30% | – |
| C=CCc1cc2c(c(CC=C)c1O)CCC(=O)N2c1ccc(OC)cc1 [Example 32, 5,7-diallyl-3,4-dihydro-6-hydroxy-1-(4-methoxyphenyl)-2(1H)-quinolinone] | 87% | – | – |
| C=CCc1cc2c(c(CC=C)c1O)CCC(=O)N2CCCCCCCCCCO [Example 33, 5,7-diallyl-3,4-dihydro-6-hydroxy-1-(10-hydroxy)-decyl-2(1H)-quinolinone] | 83% | 18% | 50% inhibitory concentration (IC50) for inhibiting the skin erythema ([1]; topical): 9.4 concentration in % |
| C=CCc1cc2c(c(CC=C)c1O)NC(=O)CO2 [Example 35, 5,7-diallyl-6-hydroxy-3-(2H)-1,4-benzoxazinone] | – | 41% | 50% inhibitory concentration (IC50) for inhibiting the skin erythema ([1]; topical): 5.9 concentration in % |
| C=CCc1cc2c(c(CC=C)c1O)OCC(=O)N2CC=C [Example 36, 7-hydroxy-4,6,8-triallyl-3(2H)-1,4-benzoxazinone] | – | 26% | 50% inhibitory concentration (IC50) for inhibiting the skin erythema ([1]; topical): 9.8 concentration in % |
| C=CCc1cc2c(c(CC=C)c1O)N(CC=C)C(=O)CO2 [Example 37, 6-hydroxy-4,5,7-triallyl-3(2H)-1,4-benzoxazinone] | – | 39% | 50% inhibitory concentration (IC50) for inhibiting the skin erythema ([1]; topical): 7.7 concentration in % |
| C=CCc1cc2c(sc(=O)n2CC=C)c(CC=C)c1O [Example 39, 6-hydroxy-3,5,7-triallylbenzothiazolinone] | 82% | 42% | 50% inhibitory concentration (IC50) for inhibiting the skin erythema ([1]; topical): 4.7 concentration in % |
| C=CCc1cc2c(c(CC=C)c1O)CCC(=O)N2CCCCl [Example 42, 1-(3-chloropropyl)-5,7-diallyl-3,4-dihydro-6-hydroxy-2(1H)-quinolinone] | – | 45% | – |
| C=CCc1cc2c(c(CC=C)c1O)CCC(=O)N2C1C=CCCC1 (stereo not drawn) [Example 45] | 95% | – | – |
| C=CCc1cc2c(c(CC=C)c1O)CCC(=O)N2CC=C [Example 46] | 95% | – | – |
| C=CCOc1ccc(CN2C(=O)CCc3c2cc(CC=C)c(O)c3CC=C)cc1 [Example 51] | 95% | – | – |
| C=CCc1cc2c(c(CC=C)c1O)CCC(=O)N2Cc1ccc(OC)cc1 [Example 52] | 100% | – | – |
| C=CCc1cc(CN2C(=O)CCc3c2cc(CC=C)c(O)c3CC=C)ccc1O [Example 53] | 95% | – | – |
| C=CCc1cc2c(c(CC=C)c1O)CCC(=O)N2Cc1ccc(C)c(C)c1 [Example 54] | 96% | – | – |

| Compound | Inhibition rate of lipid peroxide formation [2] | inhibition in vivo at 3 % [1, 3] | also measured |
| --- | --- | --- | --- |
| C=CCc1cc2c(c(CC=C)c1O)CCC(=O)N2CC(=O)OCC [Example 57, 5,7-diallyl-1-(ethoxy-carbonylmethyl)-3,4-dihydro-6-hydroxy-2(1H)-quinolinone] | 78% | – | – |
| C=CCc1cc2c(cc1O)CCC(=O)N2CCCCCCCCCCO [Example 62] | 81% | – | – |
| C=CCc1ccc2c(c1O)N(CCCCCCCCCCO)C(=O)CC2 [Example 65] | 79% | – | – |
| C=CCc1cc2c(c(CC=C)c1O)CCC(=O)N2CCCNC(=O)CCl [Example 69, 1-(3-chloroacetylaminopropyl)-5,7-diallyl-3,4-dihydro-6-hydroxy-2(1H)-quinolinone] | 78% | – | – |
| C=CCc1cc2c(c(CC=C)c1O)CCC(=O)N2CCCN1CCCCC1 [Example 71, 5,7-diallyl-3,4-dihydro-6-hydroxy-1-[3-(piperidinopropyl)]-2(1H)-quinolinone] | – | 45% | – |
| C=CCc1cc2c(c(CC=C)c1O)CCC(=O)N2CCCN1CCOCC1 [Example 72] | – | 33% | – |
| C=CCc1cc2c(c(CC=C)c1O)CCC(=O)N2CCCNCCOC [Example 74] | 68% | – | – |
| C=CCc1cc2c(c(CC=C)c1O)CCC(=O)N2CC(N)=O [Example 77, 1-(carbamoylmethyl)-5,7-diallyl-3,4-dihydro-6-hydroxy-2(1H)-quinolinone] | – | 50% | 50% inhibitory concentration (IC50) for inhibiting the skin erythema ([1]; topical): 2.7 concentration in % |
| C=CCc1cc(CN2C(=O)CCc3c2ccc(O)c3CC=C)cc(OC)c1O [Example 78, 5-allyl-6-hydroxy-1-(3-allyl-4-hydroxy-5-methoxybenzyl)-3,4-dihydro-2(1H)-quinolinone] | 95% | – | – |
| C=CCOc1cc2c(cc1C=CC)N(CC=C(C)C)C(=O)CC2 [Example 80, 6-allyloxy-3,4-dihydro-1-prenyl-7-(1-propenyl)-2(1H)-quinolinone] | 95% | – | – |
| C=CCc1cc2c(c(CC=C)c1O)CCC(=O)N2CCCCNCCCC [Example 84, 1-(4-n-butylaminobutyl)-5,7-diallyl-3,4-dihydro-6-hydroxy-2(1H)-quinolinone.oxalate] | – | 31% | – |
| C=CCc1cc2c(c(CC=C)c1O)CCC(=O)N2CCCCNC(C)(C)CO [Example 85, 5,7-Diallyl-3,4-dihydro-6-hydroxy-1-[4-(2-hydroxy-1,1-dimethyl)ethylamino]butyl-2-(1H)-quinolinone. oxalate] | – | 39% | – |
| C=CCc1cc2c(c(CC=C)c1O)CCC(=O)N2CCCCN(CC)CC [Example 86, 5,7-Diallyl-1-(4-diethylaminobutyl)-3,4-dihydro-6-hydroxy-2(1H)-quinolinone.oxalate] | 71% | – | – |
| C=CCc1cc2c(c(CC=C)c1O)CCC(=O)N2CCCCn1ccnc1 [Example 87, 5,7-Diallyl-3,4-dihydro-6-hydroxy-1-[4-(imidazol-1-yl)butyl]-2-(1N)-quinolinone.oxalate] | – | 28% | – |
| C=CCc1cc2c(c(CC=C)c1O)CCC(=O)N2CCCn1cnnc1 [Example 88, 5,7-diallyl-3,4-dihydro-6-hydroxy-1-[3-(1,2,4-triazol-4-yl)propyl]-2(1H)-quinolinone] | – | 37% | – |
| C=CCc1cc2c(c(CC=C)c1O)CCC(=O)N2CCCCP(=O)(OCC)OCC [Example 93, 5,7-diallyl-1-(4-diethoxy-phosphorylbutyl)-3,4-dihydro-6-hydroxy-2(1H)-quinolinone] | 73% | – | – |
| C=CCc1cc2c(c(CC=C)c1O)CCC(=O)N2CCCCCCCCCCCC [Example 102] | – | 57% | 50% inhibitory concentration (IC50) for inhibiting the skin erythema ([1]; topical): 3.7 concentration in % |
| C=CCc1cc2c(c(CC=C)c1O)CCC(=O)N2CCCCOC(C)=O [Example 104] | – | 31% | – |
| C=CCc1cc2c(c(CC=C)c1O)CCC(=O)N2CCCCC(=O)OC [Example 105] | – | 44% | – |
| C=CCc1cc2c(c(CC=C)c1O)CCC(=O)N2Cc1ccc(C(=O)OC)cc1 [Example 107, 5,7-Diallyl-3,4-dihydro-6-hydroxy-1-(4-methoxycarbonylbenzyl)-2(1H)-quinolinone] | – | 44% | – |
| C=CCc1cc2c(c(CC=C)c1O)CCC(=O)N2CC(=O)[O-].[Na+] [Example 113, sodium (5,7-diallyl-6-hydroxy-1,2,3,4-tetrahydro-2-oxoquinolin-1-yl)acetate] | – | – | inhibition in vivo at 3 % ([1]; topical, 24 h, read-out: Rate of activity for inhibiting the skin erythema, 3% concentration of test compound, 10 μl topical, UV 1.3-1.5 mW/cm^2 for 30 minutes, measured 24 hours later): 52%; 50% inhibitory concentration (IC50) for inhibiting the skin erythema ([1]; topical): 2.5 concentration in % |
| Cc1c(C)c2c(c(C)c1O)CCC(C)(CCCC(C)CCCC(C)CCCC(C)C)O2 (stereo not drawn) [Vitamin E, α-tocopherol, reference compound] | 77-79% | – | – |
